{"source": "patent US20250009734A1", "about": "“METHODS OF INHIBITING FOXO1 FOR TREATMENT OF LYMPHATIC DISORDERS” (UNIVERSITY OF SOUTH FLORIDA, priority 2023, published 2025)", "key": {"[1]": {"system": "human dermal lymphatic endothelial cells (hdLECs)", "experiment": "qRT-PCR of valve and flow responsive gene mRNA in cultured hdLECs", "type": "cell-based", "description": "FIG. 1. AS1842856 (AS) has a time and concentration dependent effect on valve genes expression. Human dermal lymphatic endothelial cells (hdLECs) were cultured under static conditions and treated for the indicated time (24, 48, and 72 hours) and concentrations from left to right: DMSO 1 μM, AS 0.1 μM, AS 0.5 μM, and AS 1 μM. Afterwards, mRNA of indicated genes was extracted, reverse transcribe and quantified by qRT-PCR analysis. All values are mean±SEM. n=3 experiment repeats; ns=not significant; *p≤0.05, **p≤0.01.\nTo investigate this, hdLECs were treated with three distinct concentrations of AS1842856-0.1 μM, 0.5 μM, and 1 μM for 24 hours (hrs), 48 hrs, and 72 hrs. DMSO was used as the vehicle control. The medium was changed every day with freshly made drug. Thereafter, the expression levels of valve genes and flow responsive genes, including FOXC2, GATA2, PROX1, KLF4, ITGA9, GJA4, NOS3, and CTNNB1, were determined using quantitative RT-qPCR. […] Deletion of any of these three genes leads to the absence of lymphatic valve formation during embryonic development (Petrova et al., 2004, Kazenwadel et al., 2015, Cha et al., 2016). […] However, the expression of CTNNB1 was not altered.\nHuman dermal lymphatic endothelial cells (hdLECs) purchased from Promocell (C-12216) were cultured in EBM-V2 (PromoCell, C-22121) media on fibronectin (20 μl/well) coated 6-well plates. hdLECs were treated with 4 different conditions: DMSO (1 μM), AS1842856 (EMD Millipore Corporation) 0.1 μM, 0.5 μM and 1 μM for 3 different time points: 24, 48, and 72 hours for qRT-PCR. For western blot, hdLECs were treated with 0.5 μM AS1842856 for 48 hours.\nThe RNeasy Plus Mini Kit (Qiagen) was used to isolate total RNA from hdLECs per the manufacturers' instructions. cDNA synthesis was performed using the AdvantageR RT-for-PCR kit (Takara) according to the manufacturer's guidelines. qPCR was performed in a QuantStudio 6 realtime PCR system (Applied Biosystems) with TaqmanR probes (Applied Biosystems, Thermofisher) and the Cq value of each gene was normalized to the that of GAPDH."}, "[2]": {"target": "FOXO4 (Homo sapiens, UniProt P98177)", "sequence (P98177 whole entry, species assumed)": "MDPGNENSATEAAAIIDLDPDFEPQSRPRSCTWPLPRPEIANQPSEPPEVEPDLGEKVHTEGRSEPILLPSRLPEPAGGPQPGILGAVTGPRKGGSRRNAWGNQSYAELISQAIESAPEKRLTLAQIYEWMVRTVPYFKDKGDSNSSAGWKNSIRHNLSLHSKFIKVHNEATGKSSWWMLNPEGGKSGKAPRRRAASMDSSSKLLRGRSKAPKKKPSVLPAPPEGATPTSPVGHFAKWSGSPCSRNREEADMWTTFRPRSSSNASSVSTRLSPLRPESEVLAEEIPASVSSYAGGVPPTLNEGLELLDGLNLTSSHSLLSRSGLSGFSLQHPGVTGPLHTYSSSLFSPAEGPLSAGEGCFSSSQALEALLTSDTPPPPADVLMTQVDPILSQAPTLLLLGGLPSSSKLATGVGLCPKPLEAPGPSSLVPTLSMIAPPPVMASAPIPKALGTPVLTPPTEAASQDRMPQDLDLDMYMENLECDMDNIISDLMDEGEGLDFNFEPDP", "conditions": "Nagashima et al., 2010; cited from earlier work"}}}
{"compound": "CCn1cc(C(=O)O)c(=O)c2c(N)c(F)c(NC3CCCCC3)cc21", "note": "[AS1842856]", "values": [{"measurement": "increased expression of FOXC2, GATA2, KLF4, ITGA9, GJA4, NOS3, and PROX1 (comparison of treatment conditions)", "setting": "[1]; 0.5 μM for 48 hrs", "result": "best results"}, {"measurement": "GATA2 mRNA expression level", "setting": "[1]; 24 hrs or 72 hrs AS treatment vs DMSO", "result": "not with 24 hrs or 72 hrs treatment"}, {"measurement": "CTNNB1 mRNA expression", "setting": "[1]; 48 hrs AS treatment vs DMSO", "result": "not altered"}, {"measurement": "FOXC2 mRNA expression level", "setting": "[1]; 48 hrs AS treatment vs DMSO", "result": "significantly upregulated"}, {"measurement": "GATA2 mRNA expression level", "setting": "[1]; 48 hrs AS treatment vs DMSO", "result": "significantly upregulated"}, {"measurement": "GJA4 mRNA expression level", "setting": "[1]; 48 hrs AS treatment vs DMSO", "result": "significantly higher"}, {"measurement": "ITGA9 mRNA expression level", "setting": "[1]; 48 hrs AS treatment vs DMSO", "result": "significantly higher"}, {"measurement": "KLF4 mRNA expression level", "setting": "[1]; 48 hrs AS treatment vs DMSO", "result": "significantly increased"}, {"measurement": "NOS3 mRNA expression", "setting": "[1]; 48 hrs AS treatment vs DMSO", "result": "significantly increased"}, {"measurement": "PROX1 mRNA expression level", "setting": "[1]; 48 hrs AS treatment vs DMSO", "result": "significantly increased"}, {"measurement": "FOXC2 mRNA expression level", "setting": "[1]; 48 hrs, 0.1 μM", "result": "trend of increase"}, {"measurement": "GATA2 mRNA expression level", "setting": "[1]; 48 hrs, 0.1 μM", "result": "trend of increase"}, {"measurement": "GJA4 mRNA expression level", "setting": "[1]; 48 hrs, 0.1 μM and 0.5 μM", "result": "upregulated"}, {"measurement": "ITGA9 mRNA expression level", "setting": "[1]; 48 hrs, 0.1 μM and 0.5 μM", "result": "upregulated"}, {"measurement": "NOS3 mRNA expression level", "setting": "[1]; 48 hrs, 0.1 μM and 0.5 μM", "result": "upregulated"}, {"measurement": "PROX1 mRNA expression level", "setting": "[1]; 48 hrs, 0.1 μM and 0.5 μM", "result": "upregulated"}, {"measurement": "FOXC2 mRNA expression", "setting": "[1]; 48 hrs, 0.5 μM and 1 μM", "result": "significant increase"}, {"measurement": "GATA2 mRNA expression", "setting": "[1]; 48 hrs, 0.5 μM and 1 μM", "result": "significant increase"}, {"measurement": "GJA4 mRNA expression level", "setting": "[1]; 48 hrs, 1 μM", "result": "not under 1 μM"}, {"measurement": "ITGA9 mRNA expression level", "setting": "[1]; 48 hrs, 1 μM", "result": "not under 1 μM"}, {"measurement": "NOS3 mRNA expression level", "setting": "[1]; 48 hrs, 1 μM", "result": "not under 1 μM"}, {"measurement": "PROX1 mRNA expression level", "setting": "[1]; 48 hrs, 1 μM", "result": "not under 1 μM"}, {"measurement": "CTNNB1 mRNA expression", "setting": "[1]; 48 hrs, 0.1, 0.5 and 1 μM", "result": "None of the concentrations induced significant upregulation"}, {"measurement": "FOXO1 mRNA expression", "setting": "[1]; 48 hrs, 0.1, 0.5 and 1 μM", "result": "None of the concentrations induced significant upregulation"}, {"measurement": "KLF4 mRNA expression", "setting": "[1]; 48 hrs, all three concentrations (0.1, 0.5, 1 μM)", "result": "increased"}, {"measurement": "FOXO1 mRNA expression level", "setting": "[1]; AS treatment vs DMSO", "result": "not altered"}, {"measurement": "effect on inhibiting the activity of FOXO4", "setting": "[2]", "result": "minimal effect"}]}
